Source: US4068070A, “α-Cyanoamine compounds and a process for producing the same” (Fuji Chemical Industry Co., Ltd., priority 1974, dated 1978)

Columns and labels:
Format in all cases: in vivo, mongrel adult dogs
[1] = test system: arterial mean blood pressure; test: Effects on arterial mean blood pressure
Protocol: (§1) All experiments were made on male and female thoractomized mongrel adult dogs weighing about 10 kg. under anesthesia with pentobarbital sodium. Compounds A, D, E and F were suspended in 0.2% CMC solution, Compound B dissolved in hydrochloric acid solution (pH 6), and Compound C and active placebo being dissolved in physiological saline solution. Animals were administered the drug intravenously on brachiuma with either test compound or active placebo.
(§2) Arterial blood pressure was measured by pressure transducer (Nippon Koden MPU-0.5) connected with the cannula inserted from exposed carotid artery into aorta. Aortic blood flow was determined by means of electromagnetic flow meter (Nippon Koden MF-5) mounted at the origin of the aorta. Coronary sinus out flow and coronary sinus oxygen tension were assessed by means of electromagnetic flow meter (Nippon Koden MF-5) and P02 macro electrode (Beokmann Moder 160-C), respectively using Morawitz cannulization technique. Heart rate was measured by cardiotachometer (Nippon Koden RT-2) synchronized with systolic blood pressure of aorta.

aortic blood flow = test: Effects on aortic blood flow
Protocol: as §1, §2

coronary sinus out flow = test: Effects on coronary sinus out flow
Protocol: as §1, §2

[2] = test system: coronary sinus oxygen tension; test: Effects on coronary sinus oxygen tension
Protocol: as §1, §2

heart rate = test: Effects on heart rate
Protocol: as §1, §2

SMILES: CCOC(=O)CN1CCN(C(C#N)c2ccc(OC)c(OC)c2)CC1 (centres unmarked) [Compound B]
- Changes (%) of basal values, arterial mean blood pressure ([1]; 0.2 mg/kg i.v., 1 min): +4.8%
- Changes (%) of basal values, arterial mean blood pressure ([1]; 0.2 mg/kg i.v., 5 min): +0.4%
- Changes (%) of basal values, arterial mean blood pressure ([1]; 0.2 mg/kg i.v., 10 min): +0.1%
- Changes (%) of basal values, arterial mean blood pressure ([1]; 0.2 mg/kg i.v., 20 min): -0.1%
- Changes (%) of basal values, arterial mean blood pressure ([1]; 0.2 mg/kg i.v., 30 min): 0%
- Changes (%) of basal values, arterial mean blood pressure ([1]; 0.2 mg/kg i.v., 40 min): 0%
- Changes (%) of basal values, arterial mean blood pressure ([1]; 0.2 mg/kg i.v., imm.): -5.0%
- Changes (%) of basal values, arterial mean blood pressure ([1]; 0.6 mg/kg i.v., 1 min): +6.2%
- Changes (%) of basal values, arterial mean blood pressure ([1]; 0.6 mg/kg i.v., 5 min): +0.1%
- Changes (%) of basal values, arterial mean blood pressure ([1]; 0.6 mg/kg i.v., 10 min): -0.3%
- Changes (%) of basal values, arterial mean blood pressure ([1]; 0.6 mg/kg i.v., 20 min): 0%
- Changes (%) of basal values, arterial mean blood pressure ([1]; 0.6 mg/kg i.v., 30 min): 0%
- Changes (%) of basal values, arterial mean blood pressure ([1]; 0.6 mg/kg i.v., 40 min): 0%
- Changes (%) of basal values, arterial mean blood pressure ([1]; 0.6 mg/kg i.v., imm.): -14.4%
- Changes (%) of basal values, arterial mean blood pressure ([1]; 3.0 mg/kg i.v., 1 min): +7.0%
- Changes (%) of basal values, arterial mean blood pressure ([1]; 3.0 mg/kg i.v., 5 min): +2.5%
- Changes (%) of basal values, arterial mean blood pressure ([1]; 3.0 mg/kg i.v., 10 min): +0.4%
- Changes (%) of basal values, arterial mean blood pressure ([1]; 3.0 mg/kg i.v., 20 min): -1.0%
- Changes (%) of basal values, arterial mean blood pressure ([1]; 3.0 mg/kg i.v., 30 min): -0.5%
- Changes (%) of basal values, arterial mean blood pressure ([1]; 3.0 mg/kg i.v., 40 min): 0%
- Changes (%) of basal values, arterial mean blood pressure ([1]; 3.0 mg/kg i.v., imm.): -16.2%
- Effects on arterial mean blood pressure (in words) ([1]; i.v., anesthetized dogs): transitory hypotensive effect immediately after administration, and thereafter increased blood pressure which was then, from 10 minutes after medication, returned to the level before treatment
- Changes (%) of basal values, aortic blood flow (aortic blood flow; 0.2 mg/kg i.v., 1 min): +1.2%
- Changes (%) of basal values, aortic blood flow (aortic blood flow; 0.2 mg/kg i.v., 5 min): +0.3%
- Changes (%) of basal values, aortic blood flow (aortic blood flow; 0.2 mg/kg i.v., 10 min): -0.1%
- Changes (%) of basal values, aortic blood flow (aortic blood flow; 0.2 mg/kg i.v., 20 min): 0%
- Changes (%) of basal values, aortic blood flow (aortic blood flow; 0.2 mg/kg i.v., 30 min): 0%
- Changes (%) of basal values, aortic blood flow (aortic blood flow; 0.2 mg/kg i.v., 40 min): 0%
- Changes (%) of basal values, aortic blood flow (aortic blood flow; 0.2 mg/kg i.v., imm.): +2.5%
- Changes (%) of basal values, aortic blood flow (aortic blood flow; 0.6 mg/kg i.v., 1 min): +1.6%
- Changes (%) of basal values, aortic blood flow (aortic blood flow; 0.6 mg/kg i.v., 5 min): +2.3%
- Changes (%) of basal values, aortic blood flow (aortic blood flow; 0.6 mg/kg i.v., 10 min): 0%
- Changes (%) of basal values, aortic blood flow (aortic blood flow; 0.6 mg/kg i.v., 20 min): -1.1%
- Changes (%) of basal values, aortic blood flow (aortic blood flow; 0.6 mg/kg i.v., 30 min): -0.7%
- Changes (%) of basal values, aortic blood flow (aortic blood flow; 0.6 mg/kg i.v., 40 min): 0%
- Changes (%) of basal values, aortic blood flow (aortic blood flow; 0.6 mg/kg i.v., imm.): +4.8%
- Changes (%) of basal values, aortic blood flow (aortic blood flow; 2.0 mg/kg i.v., 1 min): +4.3%
- Changes (%) of basal values, aortic blood flow (aortic blood flow; 2.0 mg/kg i.v., 5 min): -1.2%
- Changes (%) of basal values, aortic blood flow (aortic blood flow; 2.0 mg/kg i.v., 10 min): -2.1%
- Changes (%) of basal values, aortic blood flow (aortic blood flow; 2.0 mg/kg i.v., 20 min): -1.8%
- Changes (%) of basal values, aortic blood flow (aortic blood flow; 2.0 mg/kg i.v., 30 min): 0%
- Changes (%) of basal values, aortic blood flow (aortic blood flow; 2.0 mg/kg i.v., 40 min): 0%
- Changes (%) of basal values, aortic blood flow (aortic blood flow; 2.0 mg/kg i.v., imm.): +6.2%
- Effects on aortic blood flow (in words) (aortic blood flow; i.v., anesthetized dogs): an increase in blood flow immediately after administration, followed by a decrease in blood flow
- Changes(%) of basal values, coronary sinus out flow (coronary sinus out flow; 0.2 mg/kg i.v., 1 min): +4.9%
- Changes(%) of basal values, coronary sinus out flow (coronary sinus out flow; 0.2 mg/kg i.v., 5 min): +0.7%
- Changes(%) of basal values, coronary sinus out flow (coronary sinus out flow; 0.2 mg/kg i.v., 10 min): 0%
- Changes(%) of basal values, coronary sinus out flow (coronary sinus out flow; 0.2 mg/kg i.v., 20 min): -0.3%
- Changes(%) of basal values, coronary sinus out flow (coronary sinus out flow; 0.2 mg/kg i.v., 30 min): 0%
- Changes(%) of basal values, coronary sinus out flow (coronary sinus out flow; 0.2 mg/kg i.v., 40 min): 0%
- Changes(%) of basal values, coronary sinus out flow (coronary sinus out flow; 0.2 mg/kg i.v., imm.): +18.0%
- Changes(%) of basal values, coronary sinus out flow (coronary sinus out flow; 0.6 mg/kg i.v., 1 min): +30.7%
- Changes(%) of basal values, coronary sinus out flow (coronary sinus out flow; 0.6 mg/kg i.v., 5 min): +0.9%
- Changes(%) of basal values, coronary sinus out flow (coronary sinus out flow; 0.6 mg/kg i.v., 10 min): -0.7%
- Changes(%) of basal values, coronary sinus out flow (coronary sinus out flow; 0.6 mg/kg i.v., 20 min): -0.2%
- Changes(%) of basal values, coronary sinus out flow (coronary sinus out flow; 0.6 mg/kg i.v., 30 min): 0%
- Changes(%) of basal values, coronary sinus out flow (coronary sinus out flow; 0.6 mg/kg i.v., 40 min): 0%
- Changes(%) of basal values, coronary sinus out flow (coronary sinus out flow; 0.6 mg/kg i.v., imm.): +39.5%
- Changes(%) of basal values, coronary sinus out flow (coronary sinus out flow; 2.0 mg/kg i.v., 1 min): +47.4%
- Changes(%) of basal values, coronary sinus out flow (coronary sinus out flow; 2.0 mg/kg i.v., 5 min): +8.2%
- Changes(%) of basal values, coronary sinus out flow (coronary sinus out flow; 2.0 mg/kg i.v., 10 min): +5.9%
- Changes(%) of basal values, coronary sinus out flow (coronary sinus out flow; 2.0 mg/kg i.v., 20 min): +3.2%
- Changes(%) of basal values, coronary sinus out flow (coronary sinus out flow; 2.0 mg/kg i.v., 30 min): +1.5%
- Changes(%) of basal values, coronary sinus out flow (coronary sinus out flow; 2.0 mg/kg i.v., 40 min): 0%
- Changes(%) of basal values, coronary sinus out flow (coronary sinus out flow; 2.0 mg/kg i.v., imm.): +55.1%
- Effects on coronary sinus out flow (in words) (coronary sinus out flow; i.v., anesthetized dogs): a marked increasing effect on coronary sinus out flow, which was proportioned to doses thereof and of long duration
- Changes(%) of basal values, coronary sinus oxygen tension ([2]; 0.2 mg/kg i.v., 1 min): +11.3%
- Changes(%) of basal values, coronary sinus oxygen tension ([2]; 0.2 mg/kg i.v., 5 min): +1.0%
- Changes(%) of basal values, coronary sinus oxygen tension ([2]; 0.2 mg/kg i.v., 10 min): -2.0%
- Changes(%) of basal values, coronary sinus oxygen tension ([2]; 0.2 mg/kg i.v., 20 min): -0.5%
- Changes(%) of basal values, coronary sinus oxygen tension ([2]; 0.2 mg/kg i.v., 30 min): 0%
- Changes(%) of basal values, coronary sinus oxygen tension ([2]; 0.2 mg/kg i.v., 40 min): 0%
- Changes(%) of basal values, coronary sinus oxygen tension ([2]; 0.2 mg/kg i.v., imm.): +25.5%
- Changes(%) of basal values, coronary sinus oxygen tension ([2]; 0.6 mg/kg i.v., 1 min): +46.4%
- Changes(%) of basal values, coronary sinus oxygen tension ([2]; 0.6 mg/kg i.v., 5 min): +8.9%
- Changes(%) of basal values, coronary sinus oxygen tension ([2]; 0.6 mg/kg i.v., 10 min): -3.2%
- Changes(%) of basal values, coronary sinus oxygen tension ([2]; 0.6 mg/kg i.v., 20 min): -0.9%
- Changes(%) of basal values, coronary sinus oxygen tension ([2]; 0.6 mg/kg i.v., 30 min): 0%
- Changes(%) of basal values, coronary sinus oxygen tension ([2]; 0.6 mg/kg i.v., 40 min): 0%
- Changes(%) of basal values, coronary sinus oxygen tension ([2]; 0.6 mg/kg i.v., imm.): +68.4%
- Changes(%) of basal values, coronary sinus oxygen tension ([2]; 2.0 mg/kg i.v., 1 min): +70.9%
- Changes(%) of basal values, coronary sinus oxygen tension ([2]; 2.0 mg/kg i.v., 5 min): +26.7%
- Changes(%) of basal values, coronary sinus oxygen tension ([2]; 2.0 mg/kg i.v., 10 min): +8.0%
- Changes(%) of basal values, coronary sinus oxygen tension ([2]; 2.0 mg/kg i.v., 20 min): +3.0%
- Changes(%) of basal values, coronary sinus oxygen tension ([2]; 2.0 mg/kg i.v., 30 min): +0.8%
- Changes(%) of basal values, coronary sinus oxygen tension ([2]; 2.0 mg/kg i.v., 40 min): 0%
- Changes(%) of basal values, coronary sinus oxygen tension ([2]; 2.0 mg/kg i.v., imm.): +80.7%
- Effects on coronary sinus oxygen tension (in words) ([2]; i.v., anesthetized dogs): a significant increase in coronary sinus oxygen tension, effect of which was of long duration
- Changes(%) of basal values, heart rate (heart rate; 0.2 mg/kg i.v., 1 min): -0.9%
- Changes(%) of basal values, heart rate (heart rate; 0.2 mg/kg i.v., 5 min): 0%
- Changes(%) of basal values, heart rate (heart rate; 0.2 mg/kg i.v., 10 min): 0%
- Changes(%) of basal values, heart rate (heart rate; 0.2 mg/kg i.v., 20 min): 0%
- Changes(%) of basal values, heart rate (heart rate; 0.2 mg/kg i.v., 30 min): 0%
- Changes(%) of basal values, heart rate (heart rate; 0.2 mg/kg i.v., 40 min): 0%
- Changes(%) of basal values, heart rate (heart rate; 0.2 mg/kg i.v., imm.): -2.4%
- Changes(%) of basal values, heart rate (heart rate; 0.6 mg/kg i.v., 1 min): +0.6%
- Changes(%) of basal values, heart rate (heart rate; 0.6 mg/kg i.v., 5 min): -0.8%
- Changes(%) of basal values, heart rate (heart rate; 0.6 mg/kg i.v., 10 min): -0.2%
- Changes(%) of basal values, heart rate (heart rate; 0.6 mg/kg i.v., 20 min): 0%
- Changes(%) of basal values, heart rate (heart rate; 0.6 mg/kg i.v., 30 min): -0.5%
- Changes(%) of basal values, heart rate (heart rate; 0.6 mg/kg i.v., 40 min): 0%
- Changes(%) of basal values, heart rate (heart rate; 0.6 mg/kg i.v., imm.): -13.1%
- Changes(%) of basal values, heart rate (heart rate; 2.0 mg/kg i.v., 1 min): -2.4%
- Changes(%) of basal values, heart rate (heart rate; 2.0 mg/kg i.v., 5 min): -1.5%
- Changes(%) of basal values, heart rate (heart rate; 2.0 mg/kg i.v., 10 min): -0.7%
- Changes(%) of basal values, heart rate (heart rate; 2.0 mg/kg i.v., 20 min): 0%
- Changes(%) of basal values, heart rate (heart rate; 2.0 mg/kg i.v., 30 min): 0%
- Changes(%) of basal values, heart rate (heart rate; 2.0 mg/kg i.v., 40 min): 0%
- Changes(%) of basal values, heart rate (heart rate; 2.0 mg/kg i.v., imm.): -25.3%
- Effects on heart rate (in words) (heart rate; i.v., anesthetized dogs): a slight negative chronotropic effect
